This is an account of results in US20250072423A1, “THIOPHENE ACETIC ACID FOR PLANT GROWTH REGULATION” (priority 2023, published 2025).

For assay [1], the system named is tomato cotyledon explants. The assay is described as follows: Shoot regeneration from tomato cotyledon explants with 1 mg/L BAP (Experiment 3). It is filed as cell-based, tomato cultivar Roma VF.
In assay [2] the test system is WT Arabidopsis seedlings. The assay is described as follows: Root growth of WT Arabidopsis seedlings in the presence of NPA (Experiment 7). It is filed as in vivo, A. thaliana. To be noted: 5 μM TAA added, all NPA concentrations analyzed (0.5-8 μM). As to the method: (§1) Arabidopsis Columbia-0 wild type (WT) was used for assessing the effect of TAA on root growth and its effects on the expression of auxin-responsive genes. Seeds of A. thaliana were surface sterilized by suspending in 70% ethanol for 1 minute, followed by treatment with 10% bleach for 20 minutes. After thorough washing with sterile distilled water, the sterilized seeds were plated onto germination medium (half-strength Murashige and Skoog basal medium with vitamins (1/2 MS) medium supplemented with 1% sucrose and 0.7% plant agar) for germination. Germination was initiated by incubating the seeds in darkness at 5° C. for 2 days, followed by transfer to a light environment at 22° C. with a photoperiod of 16-h light/8-h dark for further growth. Stock solutions of TAA were prepared in DMSO (dimethyl sulfoxide). In control treatments, DMSO was used in equal amounts as present in the greatest concentration of TAA tested.
To analyze the effect of TAA on root growth in the presence of NPA (N-1-naphthylphthalamic acid), WT Arabidopsis seedlings were germinated as described and uniform-looking 8-day-old seedlings were transferred to germination medium supplemented with different concentrations of TAA (5 and 10 μM) and different concentrations of NPA (0, 0.5, 1, 2, 4, and 8 μM). The seedlings were allowed to grow for 6 days and the plates were photographed at 24 h intervals. […]

Assay [3] concerns WT Arabidopsis seedlings. Kind of assay: Root growth of WT Arabidopsis seedlings (Experiment 6). It is filed as in vivo, A. thaliana. As to the method: as §1
To analyze the effect of TAA on root growth, WT Arabidopsis seedlings were germinated as described and uniform-looking 8-day-old seedlings were transferred to germination medium supplemented with different concentrations of TAA (0.1, 1, 2, 5, 10, 25, 50, and 100 μM) or NAA/IAA/IBA (0.05, 0.1, 1, 2 and 5 μM). For IBA, two additional concentrations (10 and 25 μM) were also analyzed. Seedlings grown on media supplemented with an equal volume of DMSO were used as control. The seedlings were allowed to grow for 6 days and the plates were photographed at 24 h intervals. Primary root length was measured using Image J software. The difference in the number of lateral roots (LR) and root hairs was visually observed. Microscopic images were taken on a Leica Thunder Imager System (Leica Microsystems Ltd., Switzerland) and the images were processed with LAS X software.

Assay [4] concerns tomato cotyledon explants. The assay is described as follows: Root regeneration from tomato cotyledon explants in vitro (Experiment 2). To be noted: 0.05 and 0.1 mg/L. It is filed as cell-based, tomato cultivar Roma VF. As to the method: Seeds of tomato cultivar Roma VF were sterilized by treating with 75% ethanol for 30 seconds at room temperature and washed with sterile water for five times. The seeds were then treated with 15% sodium hypochlorite for 10 minutes and washed five times in sterile water. The sterilized seeds were germinated on half-strength Murashige and Skoog (MS) medium in vitro. Cotyledons from 10-day old seedlings before first true leaves emerged were used as starting explants in all the experiments. The base and tip of the cotyledons were excised and the explants were transferred with the abaxial surface in contact with the culture medium. The basic culture medium consists of MS medium with vitamins supplemented with 30 g/L sucrose and gelled with 0.8% agar, and the pH of the medium was adjusted to 5.8±0.2. Plates were maintained at a light cycle of 16/8 hours day/night, temperature of 26/24° C. day/night, and relative humidity of 70% and subcultured on the same media after 14 days. Observations were made on 7, 14, 21 and 28 days of growth. All experiments were conducted with at least three replicates of 10 explants each.
In order to analyze the effect of TAA on root regeneration, the basic media were supplemented with different concentrations of TAA (0.05 and 0.1 mg/L) and further compared with individual effect of widely used auxins (IAA, NAA, IBA, 2,4 D) at similar concentrations.

The test system of another assay is AtIAA19 (AT3G15540). Kind of assay: qRT-PCR of early auxin-responsive gene AtIAA19 (Experiment 9). It is filed as in vivo, A. thaliana. Particulars: 5 and 10 μM TAA. As to the method:
(§2) To analyze TAA responsive genes in Arabidopsis, WT Arabidopsis seeds were germinated as described and 14-day-old uniform-looking seedlings were initially acclimatized in liquid germination medium for 2 hours before transferring to medium containing different concentrations of TAA (5 and 10 μM). Seedlings in media supplemented with DMSO were used as control. Five random seedlings were selected and considered as one sample and three samples from both control and treatments were flash frozen in liquid nitrogen and total RNA was isolated using a TRIzol reagent (ThermoFisher Scientific, Cat #15596026).
(§3) Expression levels of seven previously reported early auxin-responsive genes were verified by qRT-PCR (quantitative reverse transcription polymerase chain reaction). RNA reverse transcription was performed using QuantiTect Reverse Transcription Kit (Qiagen). Three biological replicates and three technical replicates were used for all qRT-PCRs. Arabidopsis actin gene (AT3G18780) was used as internal reference.
(In general: Quantitative PCR measures a nucleic acid by following its amplification.)

The subject of the next assay is AtARF19, AT1G19220. The assay is described as follows: qRT-PCR of early auxin-responsive gene AtARF19 (Experiment 9). It is filed as in vivo, A. thaliana. Particulars: 5 and 10 μM TAA, both time points. The procedure: as §2, §3

Consider `O=C(O)Cc1ccsc1` [TAA], for which the “number of shoots (shoot regeneration)” value in assay [1] (10.0 mg/L with 1 mg/L BAP) is recorded as “maximum number of shoots”. Besides, the “start of shoot formation” value in assay [1] (0.05, 0.1, 0.5, 1.0, 2.0 and 10.0 mg/L with 1 mg/L BAP) is roughly 14 days. Moreover, the shoot organogenesis entry in assay [1] (0.05, 0.1, 0.5, 1.0, 2.0 and 10.0 mg/L with 1 mg/L BAP, by Day 28) was “many explants had well defined shoots”. Also, in the assay on WT Arabidopsis seedlings [2], the “number of root hairs” value is “increased the number of root hairs”. Besides, the “length of the primary root relative to control” value in the assay on WT Arabidopsis seedlings [3] (50 μM, after 6 days of treatment, 8-day-old seedlings) amounted to 50%. Besides, in the assay with WT Arabidopsis seedlings [3] (higher concentrations (5 μM and above)), the “number and elongation of lateral roots (LR)” value was “reduced the number of LR and inhibited the elongation of LR”. The “effect on primary root length” value in the assay with WT Arabidopsis seedlings [3] (low concentration range (FIG. 8a)) is reported as “promoter role”. The “number of lateral roots (LR)” value in the assay with WT Arabidopsis seedlings [3] (lower concentrations of TAA) is “increased”. The “root growth / root regeneration compared with known auxins” value in assay [4] (after Day 7 (FIG. 3)) is on record as “performs on par with most known auxins”. Moreover, the “organogenesis from tomato cotyledon explants (root formation)” value in assay [4] (no other hormones, within 7 days) is “rapid root formation”. Further, in the assay with AtIAA19 (AT3G15540), the AtIAA19 expression entry is recorded as “induction”. Besides, in the assay on AtARF19, AT1G19220, the AtARF19 expression result is listed as “upregulation”.
